Assay results published in ChEMBL document CHEMBL1649090, “Discovery of (7R)-14-cyclohexyl-7-{[2-(dimethylamino)ethyl](methyl) amino}-7,8-dihydro-6H-indolo[1,2-e][1,5]benzoxazocine-11-carboxylic acid (MK-3281), a potent and orally bioavailable finger-loop inhibitor of the hepatitis C virus NS5B polymerase” (J Med Chem, 2011).

Experiments:
[1] = tested on: Hepatitis C virus; test: Antiviral activity against HCV2b; format: functional, organism-based, Hepacivirus hominis; conditions: genotype 2b
[2] = tested on: Mus musculus; test: Toxicity in SCID mouse assessed as mortality at 50 mg/kg, ip bid for 5 days; format: organism-based; parameters: dose 50 mg/kg, route intraperitoneal; conditions: in vivo, 120 h

## CN(C)CCN(C)[C@H]1COc2ccccc2-c2c(C3CCCCC3)c3ccc(C(=O)O)cc3n2C1 [MK-3281]
[1]
  EC50: 1.83 µM
[2]
  Activity: Non-toxic
